Laboratory results taken from patent US10065990B2, “Cyclic peptide compound, and preparation method, pharmaceutical composition and use thereof” (HANGZHOU GUANYU BIO-MEDICAL CO., LTD, priority 2013, dated 2018).
Like-named read-outs stand apart in the source and are kept apart here.

Tests used:
HDAC7 = target: T1, HDAC7 (Homo sapiens, UniProt Q8WUI4); assay: HDAC biochemical activity measurement (fluorescent substrate deacetylation);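 also: fluorogenic deacetylation assay using acetyl-lysine substrate at 20 µM, enzyme and compound incubated 30 min at 37 °C, then developer added, fluorescence read at 360/460 nm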; settings: HDAC7; 37° C. 30 minutes
T1 sequence (Q8WUI4 1-952): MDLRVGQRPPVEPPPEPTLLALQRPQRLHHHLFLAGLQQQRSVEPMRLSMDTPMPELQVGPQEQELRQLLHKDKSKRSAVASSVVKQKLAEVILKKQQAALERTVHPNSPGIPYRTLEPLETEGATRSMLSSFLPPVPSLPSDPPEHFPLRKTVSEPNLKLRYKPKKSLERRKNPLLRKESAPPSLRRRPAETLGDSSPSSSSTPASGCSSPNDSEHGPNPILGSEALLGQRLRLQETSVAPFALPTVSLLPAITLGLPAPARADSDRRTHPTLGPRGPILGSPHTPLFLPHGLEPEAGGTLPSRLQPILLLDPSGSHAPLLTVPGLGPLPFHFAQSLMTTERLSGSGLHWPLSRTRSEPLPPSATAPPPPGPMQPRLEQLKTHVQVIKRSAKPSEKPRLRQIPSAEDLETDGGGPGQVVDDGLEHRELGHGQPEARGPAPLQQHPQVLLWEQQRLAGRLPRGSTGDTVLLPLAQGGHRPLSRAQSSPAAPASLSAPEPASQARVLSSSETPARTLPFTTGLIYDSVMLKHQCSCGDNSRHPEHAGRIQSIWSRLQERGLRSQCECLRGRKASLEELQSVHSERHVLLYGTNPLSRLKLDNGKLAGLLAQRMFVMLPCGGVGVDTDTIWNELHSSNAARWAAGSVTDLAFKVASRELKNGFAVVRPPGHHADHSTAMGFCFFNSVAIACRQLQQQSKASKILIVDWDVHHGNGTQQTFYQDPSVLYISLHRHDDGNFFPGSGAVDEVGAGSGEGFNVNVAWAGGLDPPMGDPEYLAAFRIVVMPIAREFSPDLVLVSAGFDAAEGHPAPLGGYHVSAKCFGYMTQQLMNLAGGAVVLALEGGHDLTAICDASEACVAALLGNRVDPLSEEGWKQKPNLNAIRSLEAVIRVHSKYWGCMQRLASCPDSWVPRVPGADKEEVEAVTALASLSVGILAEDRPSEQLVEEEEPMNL

HDAC2 = HDAC2 (Homo sapiens, UniProt Q92769); assay: as above; settings: 37° C. 30 minutes;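 also: HDAC2 enzyme with an acetyl-lysine fluorescent substrate, then developer added, fluorescence read at excitation 360 nm and emission 460 nm, inhibition measured across several compound concentrations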
Sequence of HDAC2 (Q92769 whole entry, species assumed): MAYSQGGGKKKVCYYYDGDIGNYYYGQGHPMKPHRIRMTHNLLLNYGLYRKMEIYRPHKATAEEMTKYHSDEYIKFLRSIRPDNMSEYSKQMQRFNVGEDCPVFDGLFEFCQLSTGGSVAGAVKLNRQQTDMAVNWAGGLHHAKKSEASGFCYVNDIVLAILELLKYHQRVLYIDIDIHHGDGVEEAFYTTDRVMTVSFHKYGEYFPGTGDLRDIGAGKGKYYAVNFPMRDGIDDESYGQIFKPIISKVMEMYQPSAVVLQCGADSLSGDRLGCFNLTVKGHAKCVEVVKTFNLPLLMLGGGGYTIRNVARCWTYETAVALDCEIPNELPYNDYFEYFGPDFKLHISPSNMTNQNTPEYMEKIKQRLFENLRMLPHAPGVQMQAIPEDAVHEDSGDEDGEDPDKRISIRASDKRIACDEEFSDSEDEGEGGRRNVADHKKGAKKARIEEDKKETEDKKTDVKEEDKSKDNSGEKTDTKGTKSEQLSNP
Description: The chemical activity of the compound is determined according to the degree of deacetylation inhibition of the HDAC enzyme. This experiment measured the degree of deacetylation related to tumor proliferation and metastasis of HDAC1, HDAC2, HDAC3, HDAC8, HDAC11 five subtypes HDAC enzymes. After the substrate containing an acetylated lysine side chain and HDAC enzyme are labeled with a fluorescent label, the fluorescent substrate is de acetyl. The fluorescent labeled substrate is cleaved by the enzyme, and the fluorescent substance is released, which generates 460 nm emission light under the excitation of 360 nm light.
HDAC substrate was diluted with reaction buffer to 200M (reaction concentration of 20M), the HDAC enzyme was diluted to the appropriate concentration, then added different concentrations of the test compounds and acted at 37° C. 30 minutes, and then added the same volume of 2-times concentration substrate developing solution (developer), incubated at room temperature for 15 minutes.

HDAC8 = target: T2, HDAC8 (Homo sapiens, UniProt Q9BY41); assay: as above; settings: 37° C. 30 minutes
T2 sequence (Q9BY41 1-377): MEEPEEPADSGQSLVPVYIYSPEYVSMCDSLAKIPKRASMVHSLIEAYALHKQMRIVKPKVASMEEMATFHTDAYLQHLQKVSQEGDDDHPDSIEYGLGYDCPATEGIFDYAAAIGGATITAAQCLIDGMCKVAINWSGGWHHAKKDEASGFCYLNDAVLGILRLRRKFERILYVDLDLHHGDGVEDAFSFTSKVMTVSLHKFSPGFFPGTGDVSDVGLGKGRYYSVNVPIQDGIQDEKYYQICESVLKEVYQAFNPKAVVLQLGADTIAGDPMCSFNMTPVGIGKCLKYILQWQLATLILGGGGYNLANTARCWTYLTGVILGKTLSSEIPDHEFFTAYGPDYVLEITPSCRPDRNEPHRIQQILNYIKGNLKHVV

[1] = test system: BGC-823 (human gastric cancer cells); assay: MTT cancer cell growth inhibition; type: cell-based; settings: Homo sapiens, BGC-823, 72 h, MTT, 72 hours incubation, read-out: GI50 BG
How it was run: (§1)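 MTT viability, 570 nm, GI50. Cells 1500/well; compound 72 h at final 10^−5–10^−10 M in triplicate.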

[2] = test system: PANC-1 (Pac-1, human pancreatic cancer cells); assay: MTT cancer cell growth inhibition; type: cell-based; settings: Homo sapiens, PANC-1, 72 h, MTT, 72 hours incubation, read-out: GI50 PAN
How it was run: as §1

IC50 HDAC7 (HDAC7) | IC50 (HDAC2) [µM] | IC50 (HDAC8) [µM] | GI50 [1] [µM] | GI50 [2] [µM] | GI50 ([1]; BGC-823 cells) [µM] | GI50 ([2]; PANC-1 cells) [µM] | Structure (SMILES)
no activity | 0.034 | 0.016 | 0.05 | 0.08 |  |  | C/C=C1\NC(=O)c2cc(C)cc(n2)CNC(=O)C[C@@H](/C=C/CCSC(C)=O)OC(=O)[C@H](Cc2ccccc2)NC1=O [Example 67]
no activity | 0.019 | 0.042 | 0.02 | 0.09 |  |  | C/C=C1\NC(=O)c2cc(F)cc(n2)CNC(=O)C[C@@H](/C=C/CCSC(C)=O)OC(=O)[C@H](Cc2cccc3ccccc23)NC1=O [Example 79]
no activity | 0.037 | 0.039 | 0.06 | 0.07 |  |  | C/C=C1\NC(=O)c2nc(ccc2F)CNC(=O)C[C@@H](/C=C/CCSC(C)=O)OC(=O)[C@H](Cc2cccc3ccccc23)NC1=O [Compound 78]
no activity | 0.031 | 0.026 | 0.03 | 0.05 |  |  | C/C=C1\NC(=O)c2nc(ccc2F)CNC(=O)C[C@@H](/C=C/CCSC(C)=O)OC(=O)[C@H](Cc2ccc(O)cc2)NC1=O [Compound 81]
no activity | 0.049 | 0.034 | 0.02 | 0.08 |  |  | C/C=C1\NC(=O)c2cc(F)cc(n2)CNC(=O)C[C@@H](/C=C/CCSC(C)=O)OC(=O)[C@H](Cc2ccc(O)cc2)NC1=O [Example 82]

Continued, compound first:

Structure (SMILES) | IC50 HDAC7 (HDAC7) | IC50 (HDAC2) [µM] | IC50 (HDAC8) [µM] | GI50 [1] [µM] | GI50 [2] [µM] | GI50 ([1]; BGC-823 cells) [µM] | GI50 ([2]; PANC-1 cells) [µM]
CC(=O)SCC/C=C/[C@@H]1CC(=O)NCc2cc(F)cc(n2)C(=O)NC(=C(C)C)C(=O)N[C@@H](C(C)C)C(=O)O1 [Compound 88] | no activity | 0.035 | 0.043 | 0.03 | 0.06 |  | 
C=C1NC(=O)c2nc(ccc2F)CNC(=O)C[C@@H](/C=C/CCSC(C)=O)OC(=O)[C@H](C(C)C)NC1=O [Compound 84] | no activity | 0.043 | 0.029 | 0.01 | 0.07 |  | 
C/C=C1\NC(=O)c2cccc(n2)CNC(=O)C[C@@H](/C=C/CCSC(=O)CCCCC)OC(=O)[C@H](C(C)C)NC1=O [Compound 3] | no activity | 0.158 | 0.169 | 0.06 | 0.03 |  | 
C/C=C1\NC(=O)c2ccc(SC)c(n2)CNC(=O)C[C@@H](/C=C/CCSC(=O)CCCCCCC)OC(=O)[C@H](CC)NC1=O [Compound 173] | no activity | 0.031 | 0.039 |  |  | 0.04 | 0.04
C/C=C1\NC(=O)c2ccc(F)c(n2)CNC(=O)C[C@@H](/C=C/CCSC(C)=O)OC(=O)[C@H](CCCCNC(=O)OCC2c3ccccc3-c3ccccc32)NC1=O [Example 77] | no activity | 0.029 | 0.037 | 0.05 | 0.08 |  | 
C/C=C1\NC(=O)c2cccc(n2)CNC(=O)C[C@@H](/C=C/CCSC(=O)CCCCCC)OC(=O)[C@H](C(C)C)NC1=O [Compound 2] | no activity | 0.163 | 0.252 | 0.06 | 0.03 |  | 
